Assay results as given in patent US11339130B1 (Blade Therapeutics, Inc., priority 2016, dated 2022).
pIC50: −log10 of the molar value. Read-outs that look alike come from different tables or passages of the source.

Assays:
Human Calpain 1/NS1 = molecular target: T1, Human Calpain 1/NS1 (Homo sapiens, UniProt P07384); assay: Calpain inhibition continuous fluorescence (FRET) assay, Human Calpain 1/NS1; type: biochemical; details: read-out: Human Calpain 1/NS1 IC50
T1 sequence (P07384 1-714): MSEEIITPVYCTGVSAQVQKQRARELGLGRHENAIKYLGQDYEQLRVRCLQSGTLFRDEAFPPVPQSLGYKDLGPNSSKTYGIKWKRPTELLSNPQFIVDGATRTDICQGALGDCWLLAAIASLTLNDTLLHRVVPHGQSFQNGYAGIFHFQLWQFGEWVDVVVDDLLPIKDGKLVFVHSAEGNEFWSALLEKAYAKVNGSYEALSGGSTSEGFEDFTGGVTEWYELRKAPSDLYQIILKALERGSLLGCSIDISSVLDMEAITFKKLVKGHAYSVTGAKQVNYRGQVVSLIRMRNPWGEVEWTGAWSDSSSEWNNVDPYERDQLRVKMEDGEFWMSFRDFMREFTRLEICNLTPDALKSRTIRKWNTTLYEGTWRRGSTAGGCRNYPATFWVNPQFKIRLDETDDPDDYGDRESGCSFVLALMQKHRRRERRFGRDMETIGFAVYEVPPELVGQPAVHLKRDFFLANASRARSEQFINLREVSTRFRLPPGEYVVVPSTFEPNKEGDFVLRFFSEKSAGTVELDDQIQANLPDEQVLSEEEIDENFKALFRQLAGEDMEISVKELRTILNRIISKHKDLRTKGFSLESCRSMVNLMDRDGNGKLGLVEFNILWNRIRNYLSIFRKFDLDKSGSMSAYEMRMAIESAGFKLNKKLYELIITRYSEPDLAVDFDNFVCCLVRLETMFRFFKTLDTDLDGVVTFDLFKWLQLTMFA
T1 sequence (P04632 1-268 partner): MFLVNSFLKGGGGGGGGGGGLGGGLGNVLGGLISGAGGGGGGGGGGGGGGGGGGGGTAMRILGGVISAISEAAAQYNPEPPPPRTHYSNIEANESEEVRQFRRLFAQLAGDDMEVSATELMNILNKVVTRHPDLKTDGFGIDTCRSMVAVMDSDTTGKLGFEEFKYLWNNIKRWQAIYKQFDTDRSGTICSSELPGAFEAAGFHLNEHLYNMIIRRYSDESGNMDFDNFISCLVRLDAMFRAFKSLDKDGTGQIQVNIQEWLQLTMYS
Procedure, shortened: (§1)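 Buffer 50 mM Tris pH 7.5/100 mM NaCl/1 mM DTT; enzyme + cpd preinc 25C; start w/ FRET substrate + CaCl2; kinetic 490/520 nm, 10 min; slopes 1-5 min; 4-PL IC50.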

Human Calpain 2/NS1 = molecular target: T2, Human Calpain 2/NS1 (Homo sapiens, UniProt P17655); assay: Calpain inhibition continuous fluorescence (FRET) assay, Human Calpain 2/NS1; type: biochemical; details: read-out: Human Calpain 2/NS1 IC50
T2 sequence (P17655 1-700): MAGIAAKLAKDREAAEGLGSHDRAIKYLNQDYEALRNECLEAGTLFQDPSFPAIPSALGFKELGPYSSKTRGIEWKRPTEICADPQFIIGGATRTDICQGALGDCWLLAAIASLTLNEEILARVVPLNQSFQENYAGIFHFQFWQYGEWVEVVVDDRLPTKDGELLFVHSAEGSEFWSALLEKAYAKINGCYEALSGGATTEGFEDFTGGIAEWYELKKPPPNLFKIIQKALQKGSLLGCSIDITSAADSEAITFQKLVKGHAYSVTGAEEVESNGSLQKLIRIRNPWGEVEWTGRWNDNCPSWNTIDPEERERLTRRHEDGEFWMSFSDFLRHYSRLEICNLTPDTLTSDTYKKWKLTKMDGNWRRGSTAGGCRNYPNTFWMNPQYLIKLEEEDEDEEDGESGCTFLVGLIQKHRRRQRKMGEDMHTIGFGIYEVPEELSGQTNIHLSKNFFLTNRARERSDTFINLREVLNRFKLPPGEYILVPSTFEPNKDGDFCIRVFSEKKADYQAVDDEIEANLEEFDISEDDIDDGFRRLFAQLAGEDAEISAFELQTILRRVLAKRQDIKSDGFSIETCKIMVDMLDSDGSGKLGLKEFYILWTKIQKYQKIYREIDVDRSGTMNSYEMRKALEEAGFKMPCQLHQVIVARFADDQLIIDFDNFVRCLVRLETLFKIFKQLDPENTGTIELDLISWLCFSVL
T2 sequence (P04632 1-268 partner): T1 sequence (P04632 1-268 partner)
Procedure, shortened: as §1

[1] = tested on: Calpain activity in SH-SY5Y cells (SBDP-150); assay: SH-SY5Y Spectrin western blot assay (SBDP-150 breakdown product, A23187-induced); type: cell-based; details: SH-SY5Y cells, A23187-induced SBDP-150, western blot, read-out: SH-SY5Y Spectrin IC50
Human Calpain 9/NS1 = molecular target: T3, Human Calpain 9/NS1 (Homo sapiens, UniProt O14815); assay: Calpain inhibition continuous fluorescence (FRET) assay, Human Calpain 9/NS1; type: biochemical; details: read-out: Human Calpain 9/NS1 IC50
T3 sequence (O14815 1-690): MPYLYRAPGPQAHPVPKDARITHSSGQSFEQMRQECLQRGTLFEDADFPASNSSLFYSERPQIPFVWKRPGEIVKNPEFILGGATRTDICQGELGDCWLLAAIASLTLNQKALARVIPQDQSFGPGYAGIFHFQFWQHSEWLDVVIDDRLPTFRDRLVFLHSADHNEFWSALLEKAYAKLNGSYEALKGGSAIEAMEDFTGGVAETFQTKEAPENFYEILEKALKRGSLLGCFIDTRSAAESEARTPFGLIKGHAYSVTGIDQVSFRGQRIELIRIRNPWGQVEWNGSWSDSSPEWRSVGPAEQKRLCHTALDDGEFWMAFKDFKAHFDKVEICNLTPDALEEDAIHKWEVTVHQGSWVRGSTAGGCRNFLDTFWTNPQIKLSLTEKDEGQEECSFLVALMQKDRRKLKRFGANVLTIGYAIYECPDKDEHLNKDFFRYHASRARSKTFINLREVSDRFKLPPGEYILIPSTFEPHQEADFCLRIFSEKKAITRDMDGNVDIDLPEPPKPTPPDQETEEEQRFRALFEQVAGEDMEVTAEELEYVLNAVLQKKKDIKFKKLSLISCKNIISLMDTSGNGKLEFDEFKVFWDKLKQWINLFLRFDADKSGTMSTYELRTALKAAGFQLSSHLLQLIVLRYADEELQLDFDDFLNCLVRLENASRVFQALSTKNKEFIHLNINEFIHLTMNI
T3 sequence (P04632 1-268 partner): T1 sequence (P04632 1-268 partner)
Procedure, shortened: as §1

[2] = tested on: Calpain activity in SH-SY5Y cells; assay: SH-SY5Y + AMC fluorescence assay (Suc-LLVY-AMC substrate); type: cell-based; details: read-out: SH-SY5Y + AMC IC50

Row | Compound | pIC50 (Human Calpain 1/NS1) | pIC50 (Human Calpain 2/NS1) | pIC50 ([1]; Homo sapiens) | pIC50 (Human Calpain 9/NS1) | pIC50 [2] | pIC50 [1]
1 | Cn1cc(C(=O)NC(Cc2ccccc2)C(=O)C(N)=O)c(Cc2ccccc2)n1 (stereo not shown) [Compound 483, N-(4-amino-3,4-dioxo-1-phenylbutan-2-yl)-3-benzyl-1-methyl-1H-pyrazole-4-carboxamide] | < 5.00 | 5.00 to 5.52 | < 4.60 | > 5.52 | – | –
2 | NC(=O)C(=O)C(Cc1ccccc1)NC(=O)c1cn(C(F)F)nc1-c1cc2ccccc2cn1 (stereo not shown) [Compound 608, N-(4-amino-3,4-dioxo-1-phenylbutan-2-yl)-1-(difluoromethyl)-3-(isoquinolin-3-yl)-1H-pyrazole-4-carboxamide] | > 5.52 | > 5.52 | < 4.60 | > 5.52 | – | –
3 | Cc1nc(-c2cccc3c2OCO3)c(C(=O)NC(Cc2ccccc2)C(=O)C(N)=O)o1 (stereo not shown) [Compound 609, N-(4-amino-3,4-dioxo-1-phenylbutan-2-yl)-4-(benzo[d][1,3]dioxol-4-yl)-2-methyloxazole-5-c arboxamide] | > 5.52 | > 5.52 | > 5.00 | > 5.52 | – | –
4 | NC(=O)C(=O)C(Cc1ccccc1)NC(=O)c1cn(C(F)F)nc1-c1cnc2ccccc2c1 (stereo not shown) [Compound 610, N-(4-amino-3,4-dioxo-1-phenylbutan-2-yl)-1-(difluoromethyl)-3-(quinolin-3-yl)-1H-pyrazole-4-carboxamide] | > 5.52 | > 5.52 | > 5.00 | > 5.52 | – | –
5 | Cn1cc(C(=O)NC(Cc2ccccc2)C(=O)C(N)=O)c(-c2ccnc3ccccc23)n1 (stereo not shown) [Compound 611, N-(4-amino-3,4-dioxo-1-phenylbutan-2-yl)-1-methyl-3-(quinolin-4-yl)-1H-pyrazole-4-carboxamide] | > 5.52 | > 5.52 | 4.60 to 5.00 | > 5.52 | – | –

The remaining lines, values ahead:

Row | pIC50 (Human Calpain 1/NS1) | pIC50 (Human Calpain 2/NS1) | pIC50 ([1]; Homo sapiens) | pIC50 (Human Calpain 9/NS1) | pIC50 [2] | pIC50 [1] | Compound
6 | > 5.52 | > 5.52 | < 4.60 | > 5.52 | – | – | Cn1cc(C(=O)NC(Cc2ccccc2)C(=O)C(N)=O)c(-c2ccc(C#N)nc2)n1 (stereo not shown) [Compound 481, N-(4-amino-3,4-dioxo-1-phenylbutan-2-yl)-3-(6-cyanopyridin-3-yl)-1-methyl-1H-pyrazole-4-carboxamide]
7 | > 5.52 | > 5.52 | < 4.60 | > 5.52 | – | – | Cn1cc(C(=O)NC(Cc2ccccc2)C(=O)C(N)=O)c(-c2cccc(C(F)(F)F)c2F)n1 (stereo not shown) [Compound 516, N-(4-amino-3,4-dioxo-1-phenylbutan-2-yl)-3-(2-fluoro-3-(trifluoromethyl)phenyl)-1-methyl-1H-pyrazole-4-carboxamide]
8 | > 5.52 | > 5.52 | 4.60 to 5.00 | 5.00 to 5.52 | – | – | C#CCOCc1ccc(-c2nn(C)cc2C(=O)N[C@@H](Cc2ccccc2)C(=O)CF)c(F)c1 [Compound 521, (S)—N-(4-fluoro-3-oxo-1-phenylbutan-2-yl)-3-(2-fluoro-4-((prop-2-yn-1-yloxy)methyl)phenyl)-1-methyl-1H-pyrazole-4-carboxamide]
9 | > 5.52 | – | 4.60 to 5.00 | – | > 5.00 | – | NC(=O)C(=O)C(Cc1ccccc1)NC(=O)c1cn(C(F)F)nc1-c1cc(F)cc(F)c1 (stereo not shown) [Compound 523, N-(4-amino-3,4-dioxo-1-phenylbutan-2-yl)-1-(difluoromethyl)-3-(3,5-difluorophenyl)-1H-pyrazole-4-carboxamide]
10 | > 5.52 | > 5.52 | < 4.60 | > 5.52 | – | – | NC(=O)C(=O)C(Cc1ccccc1)NC(=O)c1cn(-c2cccc(F)c2)nc1-c1ccccc1 (stereo not shown) [Compound 528, N-(4-amino-3,4-dioxo-1-phenylbutan-2-yl)-1-(3-fluorophenyl)-3-phenyl-1H-pyrazole-4-carb oxamide]
11 | > 5.52 | > 5.52 | – | 5.00 to 5.52 | – | < 4.60 | (S)—N-(4-(((1H-benzo[d]imidazol-5-yl)methyl)amino)-3,4-dioxo-1-phenyl butan-2-yl)-3-methyl-5-phenylisoxazole-4-carboxamide [Compound 493]
